Experimental data reported in ChEMBL document CHEMBL1138676, “Liver-selective glucocorticoid antagonists: a novel treatment for type 2 diabetes” (J Med Chem, 2004).

Key:
[1] = target: T1, Progesterone receptor (Homo sapiens, UniProt P06401); assay: Inhibition of human progesterone receptor
T1 sequence (P06401 whole entry): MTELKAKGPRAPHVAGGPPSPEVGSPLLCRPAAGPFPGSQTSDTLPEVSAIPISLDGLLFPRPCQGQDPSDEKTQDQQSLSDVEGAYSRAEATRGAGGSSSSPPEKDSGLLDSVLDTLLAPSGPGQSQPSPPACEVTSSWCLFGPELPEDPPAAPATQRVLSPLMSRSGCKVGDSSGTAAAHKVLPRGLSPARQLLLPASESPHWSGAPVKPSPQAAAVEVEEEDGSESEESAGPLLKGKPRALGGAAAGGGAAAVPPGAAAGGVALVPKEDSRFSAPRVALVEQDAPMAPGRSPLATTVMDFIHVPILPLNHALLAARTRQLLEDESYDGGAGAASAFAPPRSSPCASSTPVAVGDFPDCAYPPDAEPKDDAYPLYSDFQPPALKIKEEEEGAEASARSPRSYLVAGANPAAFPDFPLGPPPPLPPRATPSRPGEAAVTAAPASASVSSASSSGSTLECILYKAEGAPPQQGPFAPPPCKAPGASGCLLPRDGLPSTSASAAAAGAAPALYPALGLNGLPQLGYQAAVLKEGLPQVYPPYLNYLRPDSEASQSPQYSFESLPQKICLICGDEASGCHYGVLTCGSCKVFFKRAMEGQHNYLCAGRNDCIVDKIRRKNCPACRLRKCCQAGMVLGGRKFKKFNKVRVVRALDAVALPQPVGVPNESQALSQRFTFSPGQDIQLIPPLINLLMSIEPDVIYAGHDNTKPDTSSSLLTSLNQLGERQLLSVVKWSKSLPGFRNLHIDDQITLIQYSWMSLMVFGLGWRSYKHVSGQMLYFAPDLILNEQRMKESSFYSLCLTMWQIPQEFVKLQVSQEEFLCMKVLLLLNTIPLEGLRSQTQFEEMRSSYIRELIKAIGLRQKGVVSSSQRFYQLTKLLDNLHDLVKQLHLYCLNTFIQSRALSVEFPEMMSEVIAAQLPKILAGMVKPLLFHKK

[2] = target: T2, Glucocorticoid receptor (Homo sapiens, UniProt P04150); assay: Inhibition of glucocorticoid receptor dependent alkaline phosphatase activity; format: functional
T2 sequence (P04150 whole entry): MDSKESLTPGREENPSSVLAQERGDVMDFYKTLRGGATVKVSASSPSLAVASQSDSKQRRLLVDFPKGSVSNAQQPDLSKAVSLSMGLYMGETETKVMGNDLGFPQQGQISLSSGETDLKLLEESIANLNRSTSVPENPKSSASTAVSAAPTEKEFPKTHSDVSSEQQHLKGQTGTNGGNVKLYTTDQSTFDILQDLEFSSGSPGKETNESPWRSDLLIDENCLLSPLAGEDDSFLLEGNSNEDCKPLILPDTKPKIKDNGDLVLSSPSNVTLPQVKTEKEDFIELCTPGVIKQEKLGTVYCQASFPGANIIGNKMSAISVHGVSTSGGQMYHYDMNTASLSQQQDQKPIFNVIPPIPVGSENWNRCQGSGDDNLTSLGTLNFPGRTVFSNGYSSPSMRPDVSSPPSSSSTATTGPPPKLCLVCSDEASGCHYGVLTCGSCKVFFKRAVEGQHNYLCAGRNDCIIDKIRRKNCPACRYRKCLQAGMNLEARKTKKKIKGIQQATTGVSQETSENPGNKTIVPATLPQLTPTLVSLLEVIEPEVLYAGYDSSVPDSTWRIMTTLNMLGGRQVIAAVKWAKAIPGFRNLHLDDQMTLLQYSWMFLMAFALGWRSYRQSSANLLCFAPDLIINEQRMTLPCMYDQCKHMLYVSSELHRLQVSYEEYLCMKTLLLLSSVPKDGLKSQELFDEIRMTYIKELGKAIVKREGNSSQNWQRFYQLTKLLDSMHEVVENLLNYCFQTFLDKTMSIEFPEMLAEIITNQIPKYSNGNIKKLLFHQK

[3] = target: T3, Thyroid hormone receptor alpha (Homo sapiens, UniProt P10827); assay: Inhibition of human Thyroid hormone receptor alpha
T3 sequence (P10827 whole entry): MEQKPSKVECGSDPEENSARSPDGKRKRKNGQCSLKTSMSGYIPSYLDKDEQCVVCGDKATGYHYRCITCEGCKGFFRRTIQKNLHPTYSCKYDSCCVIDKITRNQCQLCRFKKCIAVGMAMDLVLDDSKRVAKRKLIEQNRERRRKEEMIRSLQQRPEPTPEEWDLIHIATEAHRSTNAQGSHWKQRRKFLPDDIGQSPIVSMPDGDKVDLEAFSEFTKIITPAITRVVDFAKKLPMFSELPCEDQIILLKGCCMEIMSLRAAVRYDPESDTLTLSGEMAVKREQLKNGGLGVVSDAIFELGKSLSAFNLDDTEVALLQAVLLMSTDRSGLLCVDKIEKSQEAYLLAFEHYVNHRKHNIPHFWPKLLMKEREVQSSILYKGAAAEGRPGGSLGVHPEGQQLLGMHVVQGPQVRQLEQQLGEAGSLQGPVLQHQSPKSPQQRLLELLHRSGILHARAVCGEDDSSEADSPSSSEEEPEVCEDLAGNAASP

[4] = target: T2, Glucocorticoid receptor; assay: Inhibition of human glucocorticoid receptor
[5] = Inhibitory activity of the Compound against rat lymphocytes
[6] = Inhibitory activity against rat lymphocytes; design: concentration or dose not given beside the values
[7] = target: Glucocorticoid receptor (Rattus norvegicus) (UniProt P06536); assay: Inhibition of glucocorticoid receptor mediated tyrosine aminotransferase activity; design: concentration or dose not given beside the values; settings: concentration not given here
Glucocorticoid receptor (Rattus norvegicus), sequence (P06536 whole entry, looked up): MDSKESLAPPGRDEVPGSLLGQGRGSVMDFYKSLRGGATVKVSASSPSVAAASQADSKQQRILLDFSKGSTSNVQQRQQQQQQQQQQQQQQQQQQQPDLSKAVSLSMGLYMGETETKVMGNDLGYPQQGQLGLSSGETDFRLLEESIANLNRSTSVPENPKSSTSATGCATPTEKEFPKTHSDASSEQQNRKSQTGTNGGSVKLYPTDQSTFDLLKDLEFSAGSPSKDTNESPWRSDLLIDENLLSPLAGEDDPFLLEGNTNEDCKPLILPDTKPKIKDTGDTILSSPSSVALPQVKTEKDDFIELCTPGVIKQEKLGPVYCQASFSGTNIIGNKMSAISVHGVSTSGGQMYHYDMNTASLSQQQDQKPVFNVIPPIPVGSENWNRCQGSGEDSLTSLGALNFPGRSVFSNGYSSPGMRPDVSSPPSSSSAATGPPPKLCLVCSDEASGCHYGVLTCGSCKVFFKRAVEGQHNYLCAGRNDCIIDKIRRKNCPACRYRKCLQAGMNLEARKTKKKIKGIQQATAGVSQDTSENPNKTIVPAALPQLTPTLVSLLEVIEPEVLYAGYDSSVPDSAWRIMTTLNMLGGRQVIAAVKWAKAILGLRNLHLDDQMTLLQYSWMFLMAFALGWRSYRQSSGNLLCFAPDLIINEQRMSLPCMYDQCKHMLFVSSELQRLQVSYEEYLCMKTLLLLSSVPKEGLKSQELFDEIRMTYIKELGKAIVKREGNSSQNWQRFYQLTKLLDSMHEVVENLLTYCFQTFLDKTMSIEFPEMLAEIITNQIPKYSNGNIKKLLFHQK

| Compound | Ki [1] [nM] | Ki [2] [nM] | Ki [3] [nM] | Ki [4] [nM] | Inhibition [5] [%] | Inhibition [6] [%] | inhibition [7] [%] |
| --- | --- | --- | --- | --- | --- | --- | --- |
| C#C[C@]1(O)CC[C@H]2[C@@H]3CCC4=CC(=O)CCC4=C3[C@@H](c3ccc(N(C)CCNC(=O)OC4CC[C@@]5(C)[C@@H](C4)C[C@@H](O)[C@@H]4[C@@H]5C[C@H](O)[C@]5(C)[C@@H]([C@H](C)CCC(=O)O)CC[C@@H]45)cc3)C[C@@]21C (stereo partly drawn) | 0.39 | 1.4 | > 1250 | 0.39 | 14 |  |  |
| C#C[C@]1(O)CC[C@H]2[C@@H]3CCC4=CC(=O)CCC4=C3[C@@H](c3ccc(N(C)CCNC(=O)N(C)C4CC[C@@]5(C)[C@@H](C4)C[C@@H](O)[C@@H]4[C@@H]5C[C@H](O)[C@]5(C)[C@@H]([C@H](C)CCC(=O)O)CC[C@@H]45)cc3)C[C@@]21C (stereo partly drawn) | 3.5 | 15 | > 1250 | 0.3 |  |  |  |
| C#C[C@]1(O)CC[C@H]2[C@@H]3CCC4=CC(=O)CCC4=C3[C@@H](c3ccc(N(C)CCC[C@H]4[C@H](O)CC[C@@]5(C)[C@@H]4C[C@@H](O)[C@@H]4[C@@H]5C[C@H](O)[C@]5(C)[C@@H]([C@H](C)CCC(=O)O)CC[C@@H]45)cc3)C[C@@]21C | 2.1 | 52 |  | 0.8 |  |  |  |
| C#C[C@]1(O)CC[C@H]2[C@@H]3CCC4=CC(=O)CCC4=C3[C@@H](c3ccc(N(C)C(=O)CNC(=O)OC4CC[C@@]5(C)[C@@H](C4)C[C@@H](O)[C@@H]4[C@@H]5C[C@H](O)[C@]5(C)[C@@H]([C@H](C)CCC(=O)O)CC[C@@H]45)cc3)C[C@@]21C (stereo partly drawn) | 2.4 | 50 | 1100 | 2.1 |  |  |  |
| C#C[C@]1(O)CC[C@H]2[C@@H]3CCC4=CC(=O)CCC4=C3[C@@H](c3ccc(N(C)CCOCCO[C@H]4CC[C@@]5(C)[C@@H](C4)C[C@@H](O)[C@@H]4[C@@H]5C[C@H](O)[C@]5(C)[C@@H]([C@H](C)CCC(=O)O)CC[C@@H]45)cc3)C[C@@]21C | 0.48 | 1.1 | > 1250 | 0.17 |  | 43 | 60 |
| C#C[C@]1(O)CC[C@H]2[C@@H]3CCC4=CC(=O)CCC4=C3[C@@H](c3ccc(N(C)C(C)=O)cc3)C[C@@]21C | 6.4 | 1.4 | 790 | 0.4 |  |  |  |
| C#C[C@]1(O)CC[C@H]2[C@@H]3CCC4=CC(=O)CCC4=C3[C@@H](c3ccc(N(C)CCCOC4CC[C@@]5(C)[C@@H](C4)C[C@@H](O)[C@@H]4[C@@H]5C[C@H](O)[C@]5(C)[C@@H]([C@H](C)CCC(=O)O)CC[C@@H]45)cc3)C[C@@]21C (stereo partly drawn) | 1.1 | 1.1 | > 1250 | 0.22 |  | -5 | 64 |
| C#C[C@]1(O)CC[C@H]2[C@@H]3CCC4=CC(=O)CCC4=C3[C@@H](c3ccc(N(C)CCOC4CC[C@@]5(C)[C@@H](C4)C[C@@H](O)[C@@H]4[C@@H]5C[C@H](O)[C@]5(C)[C@@H]([C@H](C)CCC(=O)NCCS(=O)(=O)O)CC[C@@H]45)cc3)C[C@@]21C (stereo partly drawn) | 0.53 | 37 | > 1250 | 0.27 |  |  |  |
| C#C[C@]1(O)CC[C@H]2[C@@H]3CCC4=CC(=O)CCC4=C3[C@@H](c3ccc(N(C)C(=O)CC[C@H](NC(=O)CC[C@@H](C)[C@H]4CC[C@H]5[C@@H]6[C@H](O)C[C@@H]7C[C@H](O)CC[C@]7(C)[C@H]6C[C@H](O)[C@]45C)C(=O)O)cc3)C[C@@]21C | 1.2 | 250 | 1200 | 3 |  |  |  |
| C#C[C@]1(O)CC[C@H]2[C@@H]3CCC4=CC(=O)CCC4=C3[C@@H](c3ccc(N(C)CCOC4CC[C@@]5(C)[C@@H](C4)C[C@@H](O)[C@@H]4[C@@H]5C[C@H](O)[C@]5(C)[C@@H]([C@H](C)CCC(=O)O)CC[C@@H]45)cc3)C[C@@]21C (stereo in doubt; form 2) | 0.81 | 1.1 | 670 | 0.27 |  | 9 |  |
| C#C[C@]1(O)CC[C@H]2[C@@H]3CCC4=CC(=O)CCC4=C3[C@@H](c3ccc(N(C)CCCC(=O)N(C)C4CC[C@@]5(C)[C@@H](C4)C[C@@H](O)[C@@H]4[C@@H]5C[C@H](O)[C@]5(C)[C@@H]([C@H](C)CCC(=O)O)CC[C@@H]45)cc3)C[C@@]21C (stereo partly drawn) | 0.96 | 1.2 | > 1250 | 0.27 |  | 4 | 11 |
| C#C[C@]1(O)CC[C@H]2[C@@H]3CCC4=CC(=O)CCC4=C3[C@@H](c3ccc(N(C)CCOC4CC[C@@]5(C)[C@@H](C4)C[C@@H](O)[C@@H]4[C@@H]5C[C@H](O)[C@]5(C)[C@@H]([C@H](C)CCC(=O)NCC(=O)O)CC[C@@H]45)cc3)C[C@@]21C (stereo partly drawn) | 1 | 8.6 | > 1250 | 0.42 |  |  |  |
| C#C[C@]1(O)CC[C@H]2[C@@H]3CCC4=CC(=O)CCC4=C3[C@@H](c3ccc(N(C)C(=O)CNC(=O)O[C@@H]4C[C@@H]5CC(O)CC[C@]5(C)[C@H]5C[C@H](O)[C@]6(C)[C@@H]([C@H](C)CCC(=O)O)CC[C@H]6[C@H]45)cc3)C[C@@]21C (stereo partly drawn) | 4.4 | 49 | > 1250 | 1.1 |  |  |  |
| C#C[C@]1(O)CC[C@H]2[C@@H]3CCC4=CC(=O)CCC4=C3[C@@H](c3ccc(N(C)CCCS(=O)(=O)N(C)C4CC[C@@]5(C)[C@@H](C4)C[C@@H](O)[C@@H]4[C@@H]5C[C@H](O)[C@]5(C)[C@@H]([C@H](C)CCC(=O)O)CC[C@@H]45)cc3)C[C@@]21C (stereo partly drawn) | 1.9 | 15 |  | 0.42 |  | 9 |  |
| C#C[C@]1(O)CC[C@H]2[C@@H]3CCC4=CC(=O)CCC4=C3[C@@H](c3ccc(N(C)CCOC4CC[C@@]5(C)[C@@H](C4)C[C@@H](O)[C@@H]4[C@@H]5C[C@H](O)[C@]5(C)[C@@H]([C@H](C)CCC(=O)O)CC[C@@H]45)cc3)C[C@@]21C (stereo in doubt; form 1) | 3.3 | 11 | > 1250 | 0.67 |  | -14 |  |
